Earlier results in EP0580641B1, “NEW THALIDOMIDE DERIVATIVES, METHOD OF MANUFACTURE AND USE THEREOF IN MEDICAMENTS” (Grünenthal GmbH, priority 1991, dated 1992).

Conditions: cited from Arch. Pharm. 321, 371 (1988)

Wasserlöslichkeit: 0,012 mg/ml
SMILES: O=C1CCC(N2C(=O)c3ccccc3C2=O)C(=O)N1 (stereo not shown) [Thalidomid, 3-Phthalimido-piperidin-2,6-dion]
